ChEMBL document CHEMBL1146704, “(2-amino-phenyl)-amides of omega-substituted alkanoic acids as new histone deacetylase inhibitors” (Bioorg Med Chem Lett, 2004)
Active and inactive are the calls of the source. The calls are words filed in the database; no cut-off is given here.

Tests used:
Histone deacetylase = assay: Effect on induced hyperacetylation of histones in whole cells; assay type: functional, cell-based, Homo sapiens
HCT-116 = assay: In vitro antiproliferative activity against human cancer cell line HCT116 using MTT assay; assay type: functional, cell-based
Histone deacetylase 1 = Histone deacetylase 1 (Homo sapiens, UniProt Q13547)
Chain of Histone deacetylase 1 (Q13547 whole entry): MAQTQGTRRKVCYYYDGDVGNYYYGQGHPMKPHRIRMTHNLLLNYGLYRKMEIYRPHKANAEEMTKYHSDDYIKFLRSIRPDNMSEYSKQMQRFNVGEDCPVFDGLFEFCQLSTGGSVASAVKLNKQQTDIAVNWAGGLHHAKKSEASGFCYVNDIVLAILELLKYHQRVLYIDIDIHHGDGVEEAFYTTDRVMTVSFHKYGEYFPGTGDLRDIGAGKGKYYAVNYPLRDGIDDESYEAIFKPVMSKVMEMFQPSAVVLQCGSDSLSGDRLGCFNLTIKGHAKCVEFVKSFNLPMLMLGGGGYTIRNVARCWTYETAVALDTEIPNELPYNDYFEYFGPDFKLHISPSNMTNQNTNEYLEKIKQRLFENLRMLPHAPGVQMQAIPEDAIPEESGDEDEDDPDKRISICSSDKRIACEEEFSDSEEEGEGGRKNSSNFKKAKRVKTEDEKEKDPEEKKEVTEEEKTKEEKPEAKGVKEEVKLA
Description: Ability to inhibit recombinant human histone deacetylase 1 (HDAC-1).

PANC-1 = assay: […] inhibitory activity against human PANC-1 pancreatic tumor; Active; assay type: functional
COLO 205 = assay: In vivo inhibitory activity against human COLO 205 tumor; Active
DU-145 = assay: In vivo inhibitory activity against human DU145 prostate tumor; Active; conditions: Prostate gland
[1] = Compound was tested for tumor growth inhibition relative to control; assay type: functional
A549 = assay: In vivo inhibitory activity against human A549 non-small cell lung tumor; Active
SW48 = assay: In vivo inhibitory activity against human SW48 colon tumor; Active

SMILES	EC50 (Histone deacetylase)	IC50 (HCT-116)	IC50 (Histone deacetylase 1)	Activity (PANC-1)	Activity (COLO 205)	Activity (DU-145)	TGI [1]	Activity (A549)	Activity (SW48)
Nc1ccccc1NC(=O)CCCCCN1C(=O)c2cccc3c(CN4CCCCC4)c(O)cc(c23)C1=O	1 µM	1 µM	–	–	–	–	–	–	–
Nc1ccccc1NC(=O)CCCCCn1cnc2ccccc2c1=O	–	10 µM	–	–	–	–	–	–	–
Nc1ccccc1NC(=O)CCCCCCC(=O)c1cccc(-c2ccccc2)c1	25 µM	12 µM	1 µM	–	–	–	–	–	–
COc1ccc(-c2ccc(C(=O)CCCCCCC(=O)Nc3ccccc3N)cc2)cc1OC	3 µM	4 µM	4 µM	–	–	–	–	–	–
Nc1ccccc1NC(=O)CCCCCCC(=O)c1ccc(-c2ccccc2)cc1	10 µM	7 µM	2 µM	Active	Active	Active	53%	Active	Active
Nc1ccccc1NC(=O)CCCCCn1nnc2ccccc2c1=O	10 µM	10 µM	8 µM	–	–	–	–	–	–
Nc1ccccc1NC(=O)CCCCCN1C(=O)c2cccc3c(Br)ccc(c23)C1=O	10 µM	6 µM	–	–	–	–	–	–	–
Cc1ccc2c(c1)C(=O)N(CCCCCC(=O)Nc1ccccc1N)C2=O	3 µM	6 µM	–	–	–	–	–	–	–
COc1ccc(C(=O)CCCCCCC(=O)Nc2ccccc2N)cc1	5 µM	21 µM	5 µM	–	–	–	–	–	–
Nc1ccccc1NC(=O)CCCCCCC(=O)c1ccc(-c2ccccc2)nc1	5 µM	5 µM	3 µM	Active	Active	Active	–	Active	Active
Nc1ccccc1NC(=O)c1ccc(CNC(=O)OCc2cccnc2)cc1 [ENTINOSTAT]	–	0.5 µM	–	–	–	–	–	–	–
Cn1c(=O)n(CCCCCC(=O)Nc2ccccc2N)c(=O)c2ccccc21	–	5 µM	4 µM	–	–	–	–	–	–
Nc1ccccc1NC(=O)CCCCCN1C(=O)c2ccc(O)cc2C1=O	10 µM	11 µM	–	–	–	–	–	–	–
Nc1ccccc1NC(=O)CCCCCN1C(=O)c2cccc3cccc(c23)C1=O	3 µM	2 µM	3 µM	Active	Active	Active	–	Active	Active
Nc1ccccc1NC(=O)CCCCCN1C(=O)c2cc(O)c(CN3CCOCC3)cc2C1=O	–	12 µM	4 µM	–	–	–	–	–	–
Nc1ccccc1NC(=O)CCCCCN1C(=O)c2cc(O)c(CN3CCCCC3)cc2C1=O	–	31 µM	–	–	–	–	–	–	–
Nc1ccccc1NC(=O)CCCCCCC(=O)c1ccc2ccccc2c1	25 µM	9 µM	2 µM	–	–	–	–	–	–
Nc1ccccc1NC(=O)CCCCCCC(=O)c1ccc(-c2cccnc2)cc1	20 µM	19 µM	10 µM	–	–	–	–	–	–
Nc1ccccc1NC(=O)CCCCCN1C(=O)c2ccccc2C1=O	5 µM	24 µM	2 µM	–	–	–	–	–	–
Nc1ccccc1NC(=O)CCCCCN1C(=O)c2cccc3cc(O)cc(c23)C1=O	–	0.9 µM	–	Active	Active	Active	28%	Active	Active
Nc1ccccc1NC(=O)CCCCCn1c(=O)[nH]c2ccccc2c1=O	10 µM	5 µM	4 µM	–	–	–	–	–	–
Nc1ccccc1NC(=O)CCCCCCC(=O)c1ccccc1	25 µM	> 25 µM	9 µM	–	–	–	–	–	–
Nc1ccccc1NC(=O)CCCCCN1Cc2ccccc2C1=O	99 µM	15 µM	–	–	–	–	–	–	–
Nc1ccccc1NC(=O)CCCCCN1C(=O)c2cccc3c(CN4CCOCC4)c(O)cc(c23)C1=O	2 µM	1 µM	0.5 µM	Active	Active	Active	–	Active	Active
Nc1ccccc1NC(=O)CCCCCN1C(=O)c2cccnc2C1=O	> 25 µM	> 47 µM	–	–	–	–	–	–	–
Nc1ccccc1NC(=O)CCCCCCC(=O)c1ccc(Br)cc1	15 µM	20 µM	6 µM	–	–	–	–	–	–
